Consider one compound from US4460508A, “5-Diazacycloalkylimidazo[1,2-c][1,3]benzodiazepines” (Ciba-Geigy Corporation, priority 1982, dated 1984).

For this test, the system named is α-adrenergic. The test can be described thus: α-adrenergic blocking activity in vitro.

As for `CN1CCN(C2=Nc3ccccc3Cc3nccn32)CC1` [example 1, 5-(4-methyl-1-piperazinyl)-11H-imidazo[1,2-c][1,3]benzodiazepine], the α-adrenergic blocking activity entry is on record as “only minimal”.
